According to US9579358B2, “Compositions for binding to amyloid proteins” (LANCASTER UNIVERSITY BUSINESS ENTERPRISES LIMITED, priority 2011, dated 2017):
Where two headings read alike, the source gives them in different places.

Columns and labels:
[1] = target: T1, Aβ42 (Homo sapiens, UniProt P05067); test: Thioflavin T (ThT) assay for Aβ fibrils; format: biochemical; details: Table 3, 1:2 molar ratio to Aβ
T1 construct: Recombinant Aβ42, Ultrapure, was purchased from rPeptide, Bogart, Ga., USA; purchased rPeptide, Bogart, Ga., USA
Description: This method was the same as that published previously. Briefly, 60 μl samples of solutions containing Aβ42 (25 μM), ThT (15 μM) and between 0 and 125 μM RI-OR2 or RI-OR2-TAT, in 10 mM phosphate buffered saline (PBS), pH 7.4, were incubated in sealed, black, clear-bottomed 384-well plates (Corning). ThT fluorescence was monitored every 10 mins (λex=442 nm, λem=483 nm) for 48 h at 30° C. in a Biotek Synergy 2 plate reader.

[2] = target: immobilized Aβ1-42 monomers and fibrils (Homo sapiens, UniProt P05067); details: cited from earlier work
immobilized Aβ1-42 monomers and fibrils, sequence (P05067 672-713 limits assumed): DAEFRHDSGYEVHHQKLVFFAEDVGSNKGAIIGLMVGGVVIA

T1 sequence (P05067 672-713 limits assumed): as above

In the case of “Ac-rGffvlkGr-NH2 [RI-OR2, reference compound]”, the “% of control” value ([1]; 48 hrs, Aβ alone = 100) is given as 35%, the “RFU at 48 hours” value ([1]; Aβ 25 μM) is given as 72265 RFU and the Kd ([2]; previously reported value, read-out: Kd, binding to Aβ42 fibrils) is given as 9.5 µM. The Kd ([2]; published SPR data (28), read-out: binding affinity (Kd) for interaction with Aβ monomers and fibrils) was 25 to 30 µM.
